The source of these data is patent publication US8017775B2, “1-2-dihydroquinoline derivative having glucocorticoid receptor binding activity” (Santen Pharmaceutical Co., Ltd., priority 2005, dated 2011).

Molecules are shown by their SMILES.

The experiment has as its target T1, Recombinant human GR (Homo sapiens, UniProt P04150).
T1 construct: purchased Invitrogen P2816
T1 sequence (P04150 1-777): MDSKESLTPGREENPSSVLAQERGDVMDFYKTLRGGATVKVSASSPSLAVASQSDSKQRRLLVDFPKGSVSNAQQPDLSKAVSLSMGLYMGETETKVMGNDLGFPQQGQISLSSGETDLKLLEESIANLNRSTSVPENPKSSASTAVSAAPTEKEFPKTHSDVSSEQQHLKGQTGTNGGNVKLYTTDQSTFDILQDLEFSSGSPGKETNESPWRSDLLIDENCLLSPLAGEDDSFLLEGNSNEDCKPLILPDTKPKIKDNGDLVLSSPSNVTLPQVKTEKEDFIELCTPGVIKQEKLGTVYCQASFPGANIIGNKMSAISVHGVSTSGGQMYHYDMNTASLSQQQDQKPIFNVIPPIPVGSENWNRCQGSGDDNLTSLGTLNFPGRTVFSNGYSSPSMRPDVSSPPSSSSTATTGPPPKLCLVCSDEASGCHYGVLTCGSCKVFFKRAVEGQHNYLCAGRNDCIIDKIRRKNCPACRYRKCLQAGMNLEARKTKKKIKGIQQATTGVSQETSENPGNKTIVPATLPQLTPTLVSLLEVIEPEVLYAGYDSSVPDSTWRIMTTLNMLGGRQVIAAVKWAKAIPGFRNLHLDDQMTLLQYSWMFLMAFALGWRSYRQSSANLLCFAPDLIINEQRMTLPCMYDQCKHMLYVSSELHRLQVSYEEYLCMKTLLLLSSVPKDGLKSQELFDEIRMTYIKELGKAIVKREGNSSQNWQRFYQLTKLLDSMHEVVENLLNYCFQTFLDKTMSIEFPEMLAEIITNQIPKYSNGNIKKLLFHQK
Nature of the experiment: GR competitor assay by fluorescence polarization (GR binding ratio). The conditions noted are these: positive control 2 mM dexamethasone, a GR binding ratio of 100% or more is indicated by 100%. The protocol: 1. Evaluation Test for Binding Activity to Glucocorticoid Receptor (hereinafter referred to as “GR”)
In order to evaluate a binding activity to GR, a receptor competitor assay was carried out by a fluorescence polarization method. In the assay, a GR competitor assay kit (manufactured by Invitrogen, cat No. P2816) was used, and a procedure was carried out according to the protocol attached to the kit. Hereinafter, the specific method will be described.
GR screening buffer: A buffer containing 10 mM potassium phosphate (pH 7.4), 20 mM sodium molybdate (Na2MoO4), 0.1 mM ethylene diamine tetraacetic acid (EDTA), 5 mM dithiothreitol (DTT), 0.1 mM stabilizing peptide and 2% dimethylsulfoxide was prepared.
4×GS1 solution: Fluormone™ GS1, which is a fluorescent glucocorticoid ligand, was diluted with GR screening buffer, whereby a 4 nM solution was prepared.
4×GR solution: Recombinant human GR was diluted with GR screening buffer, whereby a 16 nM solution was prepared.
After a test compound was dissolved in dimethylsulfoxide, the resulting solution was diluted with GR screening buffer, whereby a 20 μM test compound solution was prepared.
1) The test compound solution was added in an amount of 25 μL or 10 μL into each well of a 96-well or 384-well plate, and then, 4×GS1 solution and 4×GR solution were added in an amount of 12.5 μL or 5 μL into each well, respectively.
2) The plate was incubated in a dark place at room temperature for 2 to 4 hours.
3) By using a multimode plate reader, Analyst™ HT (manufactured by LJL Biosystems), fluorescence polarization of each well was measured. As the blank, a well containing GR screening buffer in place of the test compound and 4×GS1 solution was used.
4) The same procedure as that in the above 1) to 3) was carried out except that GR screening buffer was used in place of the test compound solution, and the obtained result was taken as the negative control.
5) The same procedure as that in the above 1) to 3) was carried out except that 2 mM dexamethasone was used in place of the test compound solution, and the obtained result was taken as the positive control.
A GR binding ratio (%) was calculated from the following equation.
GR binding ratio (%)=100×[1−(fluorescence polarization of test compound solution−fluorescence polarization of positive control solution)/(fluorescence polarization of negative control solution−fluorescence polarization of positive control solution)]
For orientation: Polarisation of emitted light reports the rotation of a fluorescent probe.

Turning to `COc1ccc(C(F)(F)F)cc1-c1ccc2c(c1CNc1cc(F)ccc1C)C(C)=CC(C)(C)N2` [Compound 6-79, 5-(5-Fluoro-2-methylphenylaminomethyl)-6-(2-methoxy-5-trifluoromethylphenyl)-2,2,4-trimethyl-1,2-dihydroquinoline], the “GR Binding ratio (%)” value is listed as not below 100%.
Consider `COc1cc(F)ccc1-c1ccc2c(c1COC(=O)c1ccc(Cl)s1)C(C)=CC(C)(C)N2` [Compound 12-22, 5-[(5-Chlorothiophen-2-yl)carbonyloxymethyl]-6-(4-fluoro-2-methoxyphenyl)-2,2,4-trimethyl-1,2-dihydroquinoline], for which the “GR Binding ratio (%)” value is reported as not below 100%.
Turning to `COc1ccc(F)cc1-c1ccc2c(c1CNc1cc(F)ccc1C)C(C)=CC(C)(C)N2` [Compound 6-78, 6-(5-Fluoro-2-methoxyphenyl)-5-(5-fluoro-2-methylphenylaminomethyl)-2,2,4-trimethyl-1,2-dihydroquinoline], the “GR Binding ratio (%)” value is reported as not below 100%.
`C=CCOc1ccc(-c2ccc3c(c2COc2cc(F)ccc2C)C(C)=CC(C)(C)N3)c(OC)c1` [Compound 15-7, 6-(4-Allyloxy-2-methoxyphenyl)-5-(5-fluoro-2-methylphenoxymethyl)-2,2,4-trimethyl-1,2-dihydroquinoline]: the “GR Binding ratio (%)” value is given as not below 100%.
With `COc1cc(F)ccc1-c1ccc2c(c1COc1cccc(C)c1)C(C)=CC(C)(C)N2` [Compound 3-21, 6-(4-Fluoro-2-methoxyphenyl)-5-(3-methylphenoxymethyl)-2,2,4-trimethyl-1,2-dihydroquinoline] the figure was 97%.
With `COc1cc(F)ccc1-c1ccc2c(c1CNc1ccccc1C(C)C)C(C)=CC(C)(C)N2` [Compound 6-47, 6-(4-Fluoro-2-methoxyphenyl)-5-(2-isopropylphenylaminomethyl)-2,2,4-trimethyl-1,2-dihydroquinoline] the figure was not below 100%.
With `C/C=C/c1ccccc1OCc1c(-c2ccc(F)cc2OC)ccc2c1C(C)=CC(C)(C)N2` [Compound 3-62, 6-(4-Fluoro-2-methoxyphenyl)-5-[2-(1-propenyl)phenoxymethyl]-2,2,4-trimethyl-1,2-dihydroquinoline] the figure was not below 100%.
Consider `COc1cc(F)ccc1-c1ccc2c(c1CNc1cc(C)ccc1C)C(C)=CC(C)(C)N2` [Compound 6-53, 5-(2,5-Dimethylphenylaminomethyl)-6-(4-fluoro-2-methoxyphenyl)-2,2,4-trimethyl-1,2-dihydroquinoline], for which the “GR Binding ratio (%)” value was 95%.
Turning to `COc1ccc(Cl)cc1-c1ccc2c(c1COC(=O)c1ccc(C)s1)C(C)=CC(C)(C)N2` [Compound 12-69, 6-(5-Chloro-2-methoxyphenyl)-5-(5-methylthiophen-2-ylcarbonyloxymethyl)-2,2,4-trimethyl-1,2-dihydroquinoline], the “GR Binding ratio (%)” value is reported as not below 100%.
With `COc1ccc(F)cc1-c1ccc2c(c1COc1cc(F)ccc1C)C(C)=CC(C)(C)N2` [Compound 14-43, 6-(5-Fluoro-2-methoxyphenyl)-5-(5-fluoro-2-methylphenoxymethyl)-2,2,4-trimethyl-1,2-dihydroquinoline] the figure was not below 100%; with `COc1ccc(Cl)cc1-c1ccc2c(c1COc1ccccc1CCO)C(C)=CC(C)(C)N2` [Compound 3-98, 6-(5-Chloro-2-methoxyphenyl)-5-[2-(2-Hydroxyethyl)phenoxymethyl]-2,2,4-trimethyl-1,2-dihydroquinoline], not below 100%; with `CCc1cccc(NCc2c(-c3ccc(F)cc3OC)ccc3c2C(C)=CC(C)(C)N3)c1` [Compound 6-40, 5-(3-Ethylphenylaminomethyl)-6-(4-fluoro-2-methoxyphenyl)-2,2,4-trimethyl-1,2-dihydroquinoline], 99%.
With `COc1ccc(O)cc1-c1ccc2c(c1COc1cc(F)ccc1C)C(C)=CC(C)(C)N2` [Compound 5-4, 5-(5-Fluoro-2-methylphenoxymethyl)-6-(5-hydroxy-2-methoxyphenyl)-2,2,4-trimethyl-1,2-dihydroquinoline] the figure was 95%; with `COc1cc(F)c(F)cc1-c1ccc2c(c1COC(=O)c1ccc(C)s1)C(C)=CC(C)(C)N2` [Compound 12-54, 6-(4,5-Difluoro-2-methoxyphenyl)-5-[(5-methylthiophen-2-yl)carbonyloxymethyl]-2,2,4-trimethyl-1,2-dihydroquinoline], not below 100%; with `COc1cc(F)ccc1-c1ccc2c(c1CNc1ccccc1C)C(C)=CC(C)(C)N2` [Compound 6-37, 6-(4-Fluoro-2-methoxyphenyl)-5-(2-methylphenylaminomethyl)-2,2,4-trimethyl-1,2-dihydroquinoline], not below 100%.
Turning to `COc1cc(F)ccc1-c1ccc2c(c1COc1cc(C)cc(C)c1C)C(C)=CC(C)(C)N2` [Compound 3-44, 6-(4-Fluoro-2-methoxyphenyl)-5-(2,3,5-trimethylphenoxymethyl)-2,2,4-trimethyl-1,2-dihydroquinoline], the “GR Binding ratio (%)” value was 98%.
For the molecule `COc1ccc(F)cc1-c1ccc2c(c1COC(=O)c1ccc(C)s1)C(C)=CC(C)(C)N2` [Compound 12-76, 6-(5-Fluoro-2-methoxyphenyl)-5-(5-methylthiophen-2-ylcarbonyloxymethyl)-2,2,4-trimethyl-1,2-dihydroquinoline], the “GR Binding ratio (%)” value was not below 100%.
As for `COc1cc(F)c(F)cc1-c1ccc2c(c1COc1cc(F)ccc1C)C(C)=CC(C)(C)N2` [Compound 3-57, 6-(4,5-Difluoro-2-methoxyphenyl)-5-(5-fluoro-2-methylphenoxymethyl)-2,2,4-trimethyl-1,2-dihydroquinoline], the figure is 98%; as for `COc1cc(F)ccc1-c1ccc2c(c1COC(=O)c1cccs1)C(C)=CC(C)(C)N2` [Compound 1-21, 6-(4-Fluoro-2-methoxyphenyl)-5-[(thiophene-2-yl)carbonyloxymethyl]-2,2,4-trimethyl-1,2-dihydroquinoline], 82%.
As for `COc1cc(F)ccc1-c1ccc2c(c1COc1cc([N+](=O)[O-])ccc1C)C(C)=CC(C)(C)N2` [Compound 3-72, 6-(4-Fluoro-2-methoxyphenyl)-5-(2-methyl-5-nitrophenoxymethyl)-2,2,4-trimethyl-1,2-dihydroquinoline], the figure is not below 100%; as for `COc1ccc(C(=O)OCc2c(-c3ccc(F)cc3OC)ccc3c2C(C)=CC(C)(C)N3)cc1` [Compound 1-19, 6-(4-Fluoro-2-methoxyphenyl)-5-(4-methoxybenzoyloxymethyl)-2,2,4-trimethyl-1,2-dihydroquinoline], not below 100%.
With `COc1cc(F)c(F)cc1-c1ccc2c(c1COC(=O)c1cccs1)C(C)=CC(C)(C)N2` [Compound 12-53, 6-(4,5-Difluoro-2-methoxyphenyl)-5-[(thiophen-2-yl)carbonyloxymethyl]-2,2,4-trimethyl-1,2-dihydroquinoline] the figure was not below 100%; with `COc1cc(F)ccc1-c1ccc2c(c1COC(=O)c1cc(C)cs1)C(C)=CC(C)(C)N2` [Compound 12-21, 6-(4-Fluoro-2-methoxyphenyl)-5-[(4-methylthiophen-2-yl)carbonyloxymethyl]-2,2,4-trimethyl-1,2-dihydroquinoline], not below 100%; with `COc1ccc(F)cc1-c1ccc2c(c1COc1cc(Cl)ccc1C)C(C)=CC(C)(C)N2` [Compound 14-41, 5-(5-Chloro-2-methylphenoxymethyl)-6-(5-fluoro-2-methoxyphenyl)-2,2,4-trimethyl-1,2-dihydroquinoline], not below 100%.
